Source: patent US20230149409A1, “TREATMENT OF HUMAN PAPILLOMAVIRUS-ASSOCIATED CANCERS BY PD-L1 INHIBITORS” (priority 2021, published 2023)

Columns and labels:
[1] = system: PD-L1 (U2OS/PD-L1 cells, Jurkat-PD-1-SHP cells); test: Src Homology Region 2 Domain-containing Phosphatase (SHP) assay; assay type: cell-based; settings: Homo sapiens; U2OS/PD-L1 + Jurkat-PD-1-SHP cells, 2 hours
Protocol: Example 1B. Src Homology Region 2 Domain-containing Phosphatase (SHP) Assay
U2OS/PD-L1 cells (DiscoveRx Corporation) were maintained in McCoy’s 5A medium with addition of 10% FBS, 0.25 µg/mL Puromycin. After removing the culture media, the cell medium was replaced with assay medium (RPMI1640 medium with 1% FBS). The U2OS/PD-L1 cells were then added in 384-well black clear bottom assay plate (CELLCOAT® Tissue Culture Plates, Greiner Bio-One) at 5000 cells per well in 20 uL assay medium. Test compounds were prepared by serial dilution in DMSO and 125 nL compound were first transferred to the 384 REMP plate well (Thermofisher) by ECHO liquid handler (Labcyte) followed with addition of 27.5 uL assay medium. 5 µL/well compounds in the assay medium were transferred to the cell plate with 0.05% DMSO in the final assay at 0.25 µM. Jurkat-PD-1-SHP cells (DiscoveRx Corporation) were cultured in RPMI1640 medium supplemented with 10% FBS, 250 µg/mL Hygromycin B, 500 µg/mL G418. After the replacement of culture media with assay medium, 5,000 Jurkat-PD-1-SHP cells in 20 µL were dispensed into each well. The assay plate was incubated at 37° C., 5% CO2 for 2 hours before 2.5 uL PathHunter reagent 1 (DiscoveRx Corporation) were added to each well. The assay plate was shaken for 1 min at 350 rpm in the dark followed with addition of 10 uL PathHunter reagent 2 (DiscoveRx Corporation). Chemiluminescent signal was recorded with TopCount reader (Perkin Elmer) after incubation at room temperature for 1 hour. Wells with DMSO were served as the positive controls and wells containing no cells were used as negative controls. IC50 determination was performed by fitting the curve of percentage of control activity versus the log of the compound concentration using the GraphPad Prism 6.0 software.

[2] = biological target: T1, PD-⅟PD-L1 (recombinant human PD-L1 protein and human PD-1 protein) (Homo sapiens, UniProt Q9NZQ7); test: Homogeneous Time-Resolved Fluorescence (HTRF) PD-1/PD-L1 binding assay; settings: 3 nM PD1, 10 nM PD-L1, 25° C., PBS pH 7.4
T1 construct: Recombinant human PD-L1 protein (19-238) with a His-tag at the C-terminus; purchased AcroBiosystems PD1-H5229 (PD-L1); PD1-H5257 (PD-1)
T1 sequence (Q9NZQ7 19-238): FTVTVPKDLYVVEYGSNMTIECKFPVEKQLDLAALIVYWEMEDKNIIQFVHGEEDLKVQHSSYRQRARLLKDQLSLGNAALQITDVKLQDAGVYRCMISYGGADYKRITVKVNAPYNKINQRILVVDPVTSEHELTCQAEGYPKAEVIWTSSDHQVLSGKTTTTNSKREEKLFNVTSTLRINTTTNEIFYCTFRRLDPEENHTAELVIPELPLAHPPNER
Protocol: Homogeneous Time-Resolved Fluorescence (HTRF) PD-⅟PD-L1 Binding Assay
The assays were conducted in a standard black 384-well polystyrene plate with a final volume of 20 uL. Inhibitors were first serially diluted in DMSO and then added to the plate wells before the addition of other reaction components. The final concentration of DMSO in the assay was 1%. The assays were carried out at 25° C. in the PBS buffer (pH 7.4) with 0.05% Tween-20 and 0.1% BSA. […] PD-L1 and PD-1 proteins were diluted in the assay buffer and 10 uL was added to the plate well. Plates were centrifuged and proteins were preincubated with inhibitors for 40 minutes. The incubation was followed by the addition of 10 uL of HTRF detection buffer supplemented with Europium cryptate-labeled anti-human IgG (PerkinElmer-AD0212) specific for Fc and anti-His antibody conjugated to SureLight®-Allophycocyanin (APC, PerkinElmer-AD0059H). […] Final concentrations in the assay were - 3 nM PD1, 10 nM PD-L1, 1 nM europium anti-human IgG and 20 nM anti-His-Allophycocyanin. IC50 determination was performed by fitting the curve of percent control activity versus the log of the inhibitor concentration using the GraphPad Prism 5.0 software.

[3] = biological target: T2, PD-L1 on CD14+ cells in human whole blood (Homo sapiens, UniProt Q9NZQ7); test: PD-L1 whole blood internalization assay; assay type: cell-based; settings: 1 ng/mL interferon γ, CD14+ gated, 24 hour
T2 construct: Cells were gated on CD14+ (BD Biosciences) and PD-L1 expression determined by mean fluorescence intensity; host or cells: CD14+ cells in normal human whole blood, stimulated with human interferon gamma
T2 sequence (Q9NZQ7 19-290): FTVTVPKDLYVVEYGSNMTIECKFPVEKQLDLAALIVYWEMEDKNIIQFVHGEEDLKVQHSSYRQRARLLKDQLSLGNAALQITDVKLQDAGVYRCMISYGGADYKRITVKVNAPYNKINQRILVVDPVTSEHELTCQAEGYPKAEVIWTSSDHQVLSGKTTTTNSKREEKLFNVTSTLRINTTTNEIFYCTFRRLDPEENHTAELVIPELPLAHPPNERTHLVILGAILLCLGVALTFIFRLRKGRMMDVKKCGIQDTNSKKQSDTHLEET
Protocol: PD-L1 Whole Blood Internalization Assay
To determine PD-L1 internalization in human whole blood, normal human blood (Biological Specialty Corp, Colmar. PA) was incubated in the presence or absence of a concentration range of test compounds and 1 ng/mL human interferon γ (R&D Systems Inc. Minn. MN) in a 96 well “2 mL Assay Block” (Corning, Corning NY) for 18-20 hours at 37 °C. Blood was then stained with PD-L1 (MIH1, eBioscience; or BD Biosciences San Jose, CA), CD14 (Life Technologies, Carlsbad, CA) for 30 minutes in the dark at room temperature. Whole Blood/red cells were lysed/fixed (lysis buffer BD Biosciences) for 5 minutes at 37 °C in the dark and then centrifuged at 1600 RPM for 5 minutes. Cells were resuspended in Stain Buffer (BD Bioscience, San Jose, CA) and transferred into 96 well round bottom plates (Coming). Cells were gated on CD14+ (BD Biosciences) and PD-L1 expression determined by mean fluorescence intensity (MFI) (BD LSRFortessa® X-20). IC50 determination was performed by fitting the curve of compound percent inhibition versus the log of the compound concentration using the GraphPad Prism 7.0 software.

[4] = system: PD-L1 (PD-L1 aAPC/CHO-K1 cells, Jurkat-PD-1-NFAT effector cells); test: Nuclear Factor of Activated T-cells (NFAT) assay; assay type: cell-based; settings: Cricetulus griseus; PD-L1 aAPC/CHO-K1 + Jurkat-PD-1-NFAT cells, 24 hours
Protocol: Nuclear Factor of Activated T-cells (NFAT) Assay
PD-L1 aAPC/CHO-K1cells (Promega) were maintained in F-12 medium with addition of 10% FBS, 200 µg/mL Hygromycin B, 250 µg/mL Geneticin (G418). […] The culture media of PD-L1 aAPC/CHO-K1 cells were first replaced with assay medium (RPMI1640 medium with 1% FBS). The PD-L1 aAPC/CHO-K1cells were then added in a white 384-well white clear bottom assay plate (CELLCOAT® Tissue Culture Plates, Greiner Bio-One) at 8000 per well in 10 uL assay medium. […] 5 uL compounds in the assay medium were transferred to the cells with 0.4% DMSO in the final assay at 2 µM. After removing the culture media, 10,000 Jurkat-PD-1-NFAT effector cells in 5 µL assay medium was dispensed into each well. The assay plate was incubated at 37° C., 5% CO2 for 24 hours. […] After 8 minutes incubation at room temperature, luminescence was read at with Pherastar microplate reader (BMG Labtech). The fold of induction (FOI) was calculated based on the ratio of luminescence normalized to the DMSO wells within each assay plate. The maximum percentage of induction was reported based on the ratio between the highest FOI of each compound and the maximum FOI of control compound within each assay plate. Wells with DMSO were served as the negative controls and wells containing control compound with the highest FOI were used as positive controls. EC50 determination was performed by fitting the curve of percent control activity versus the log of the compound concentration using the GraphPad Prism 6.0 software.

Row | SMILES | IC50 [1] | IC50 [2] | IC50 [3] | EC50 [4]
1 | Cc1c(NC(=O)c2nc3c(n2C)CCN(C)C3)cccc1-c1cccc(NC(=O)c2nc3c(n2C)CCN(C[C@H]2CC[C@@H](C(=O)O)CC2)C3)c1Cl [Compound 18, cis-4-((2-((2-chloro-3′-(1,5-dimethyl-4,5,6,7-tetrahydro-1H-imidazo[4,5-c]pyfidine-2-caiboxamido)-2′-methyl-[1,1′-biphenyl]-3-yl)carbamoyl)-1-methyl-1,4,6,7-tetrahydro-5H-imidazo[4,5-c]pyridin-5-yl)methyl)cyclohexane-1-carboxylic acid] | < 10 nM | < 10 nM | < 100 nM | < 100 nM
2 | C[C@@H](O)CN1CCc2c(nc(C(=O)Nc3cccc(-c4cccc(NC(=O)c5nc6c(n5C)CCN(CCC57CCC(C(=O)O)(CC5)C7)C6)c4Cl)c3Cl)n2C)C1 [Compound 29] | < 10 nM | < 10 nM | < 100 nM | < 10 nM
3 | Cc1c(-c2nc3c(Cl)cc(CNCCO)cn3n2)cccc1-c1cccc(NC(=O)c2ccc(CNCCO)cn2)c1Cl [Compound 2, N-(2-chloro-3′-(8-chloro-6-((2-hydroxyethylamino)methyl)-[1,2,4]triazolo[1,5-a]pyridin-2-yl)-2′-methylbiphenyl-3-yl)-5-((2-hydroxyethylamino)methyl)picolinamide] | < 100 nM | < 10 nM | – | < 500 nM
4 | Cc1c(-c2nc3c(s2)CN(C(=O)CN(C)C(C)C)C3)cccc1-c1cccc(NC(=O)c2nc3c(n2C)CCN(CCC2CCC(C(=O)O)CC2)C3)c1Cl (stereo not shown) [Compound 23, 4-(2-(2-(2-chloro-3′-(5-(2-(isopropyl(methyl)amino)acetyl)-5,6-dihydro-4H-pyrrolo[3,4-d]thiazol-2-yl)-2′-methylbiphenyl-3-ylcarbamoyl)-1-methyl-6,7-dihydro-1H-imidazo[4,5-c]pyridin-5(4H)-yl)ethyl)cyclohexane-1-carboxylic acid] | < 10 nM | < 10 nM | < 100 nM | < 100 nM
5 | CN1CCc2c(nc(C(=O)Nc3cccc(-c4cccc(NC(=O)c5nc6c(n5C)CCN(CC[C@H]5CC[C@H](C(=O)O)CC5)C6)c4C#N)c3Cl)n2C)C1 [Compound 19, trans-4-(2-(2-((2′-chloro-2-cyano-3′-(1,5-dimethyl-4,5,6,7-tetrahydro-1H-imidazo[4,5-c]pyridine-2-carboxamido)-[1,1′-biphenyl]-3yl)carbamoyl)-1-methyl-1,4,6,7-tetrahydro-5H-imidazo[4,5-c]pyridin-5-yl)ethyl)cyclohexane-1-carboxylic acid] | < 10 nM | < 10 nM | < 100 nM | < 100 nM
6 | Cc1c(NC(=O)c2nc3c(n2C)CCN(C[C@H]2CC[C@H](C(=O)O)CC2)C3)cccc1-c1cccc(NC(=O)c2nc3c(n2C)CCN(C)C3)c1Cl [Compound 15, trans-4-((2-(2′-chloro-3′-(1,5-dimethyl-4,5,6,7-tetrahydro-1H-imidazo[4,5-c]pyfidine-2-caiboxamido)-2-methylbiphenyl-3-ylcarbamoyl)-1-methyl-6,7-dihydro-1H-imidazo[4,5-c]pyridin-5(4H)-yl)methyl)cyclohexane-1-carboxylic acid] | < 10 nM | < 10 nM | < 500 nM | < 100 nM
7 | Cn1c(C(=O)Nc2cccc(-c3cccc(NC(=O)c4nc5c(n4C)CCN(CCC46CCC(C(=O)O)(CC4)C6)C5)c3C#N)c2Cl)nc2c1CCN(CCC13CCC(C(=O)O)(CC1)C3)C2 [Compound 33, 4,4′-(((((2-chloro-2′-cyano-[1,1′-biphenyl]-3,3′-diyl)bis(azanediyl))bis(carbonyl))bis(1-methyl-1,4,6,7-tetrahydro-5H-imidazo[4,5-c]pyridine-2,5-diyl))bis(ethane-2,1-diyl))bis(bicyclo[2.2.1]heptane-1-carboxylic acid)] | < 10 nM | < 10 nM | < 100 nM | < 100 nM
8 | Cc1c(NC(=O)c2nc3c(n2C)CCN(CC[C@H]2CC[C@H](C(=O)O)CC2)C3)cccc1-c1cccc(NC(=O)c2nc3c(n2C)CCN(C)C3)c1Cl [Compound 16, trans-4-(2-(2-((2′-chloro-3′-(1,5-dimethyl-4,5,6,7-tetrahydro-1H-imidazo[4,5-c]pyfidine-2-caiboxamido)-2-methyl-[1,1′-biphenyl]-3-yl)caibamoyl)-1-methyl-1,4,6,7-tetrahydro-5H-imidazo[4,5-c]pyridin-5-yl)ethyl)cyclohexane-1-carboxylic acid] | < 10 nM | < 10 nM | < 100 nM | < 100 nM
9 | Cc1cc(C(=O)Nc2cccc(-c3cccc(NC(=O)c4ccc(CN5CCCC5)cn4)c3Cl)c2C)ncc1CN1CCCC[C@H]1C(=O)O [Compound 9, (S)-1-((6-((2′-chloro-2-methyl-3′-(5-(pyrnolidin-1-ylmethyl)picolinamido)-[1,1′-biphenyl]-3-yl)carbamoyl)-4-methylpyridin-3-yl)methyl)piperidine-2-carboxylic acid] | < 10 nM | < 10 nM | – | < 100 nM
10 | Cc1c(NC(=O)c2ccc(CN3CCC(C(=O)O)CC3)cn2)cccc1-c1cccc(NC(=O)c2ccc(CN3CC[C@@H](O)C3)cn2)c1Cl [Compound 8, (R)-1-((6-(2′-chloro-3′-(5-((3-hydroxypyrrolidin-1-yl)methyl)picolinamido)-2-methylbiphenyl-3-ylcarbamoyl)pyridin-3-yl)methyl)piperidine-4-carboxylic acid] | < 100 nM | < 10 nM | – | < 100 nM
